Results taken from patent US9505771B2, “Stable micronised monoclin form of asenapine maleate and its synthesis” (Laboratories Lesvi S.L., priority 2011, dated 2016).
Structures can show the parent of a compound that is named as a salt.

Columns and labels:
[1] = PXRD determination of orthorhombic form content in the micronised product; assay type: physicochemical; details: for orthorhombic form contained in the micronised product, as determined by PXRD / polymorphic purity (monoclinic form) of the micronised product: after micronisation; for % of orthorhombic form in the micronised product: directly after micronisation, before storage
Protocol: (§1) Powder X-Ray Diffraction (PXRD) patterns were acquired on a D8 Advance Series 2Theta/Theta powder diffraction system using CuKα-radiation in transmission geometry. The system was equipped with a VANTEC-1 single photon counting PSD, a Germanium monochromator, a ninety positions auto changer sample stage, fixed divergence slits and radial soller. Programs used: Data collection with DIFFRAC plus XRD Commander V.2.5.1 and evaluation with EVA V.12.0. The samples were prepared and placed in standard sample holders using two foils of polyacetate. Five hours scans in a range from 8° to 20° in 2θ were carried out.

[2] = Stability assays of the micronised samples (polymorphic stability on storage, PXRD); assay type: physicochemical; details: transparent and opaque vacuum containers; for % of orthorhombic form after 1 months / % of orthorhombic form after 3 months: 40° C.-75% RH; for % of orthorhombic form after 2 months: 25° C.-60% RH
Protocol: During the storage period of 1 month, 2 months or 3 months, a temperature of 25° C. and a relative humidity of 60%, or a temperature of 40° C. and a relative humidity of 75%, may be used. For such tests, the samples may be placed into either or both of transparent and opaque vacuum containers. […] The monoclinic and orthorhombic forms of asenapine maleate were characterised, and thus distinguished, by the powder X-ray diffraction pattern (PXRD) of the asenapine maleate, as described in EP 1710245.
as §1
Stability assays of the new stable monoclinic form of asenapine maleate obtained as described above were performed after 1 month, 2 months and 3 months. The samples were placed into two different types of containers, transparent and opaque vacuum containers. The stability tests were carried out at two different storage conditions, 25° C. and 60% relative humidity (RH), and at 40° C. and 75% RH.

| SMILES | orthorhombic form contained in the micronised product, as determined by PXRD [1] | % of orthorhombic form in the micronised product [1] | % of orthorhombic form after 1 months [2] | % of orthorhombic form after 3 months [2] | % of orthorhombic form after 2 months [2] | polymorphic purity (monoclinic form) of the micronised product [1] |
| --- | --- | --- | --- | --- | --- | --- |
| CN1C[C@@H]2c3ccccc3Oc3ccc(Cl)cc3[C@H]2C1 (racemic) [Example 2, asenapine maleate] | about 5 % by weight | 5% | 9% | 13% | – | – |
| CN1C[C@@H]2c3ccccc3Oc3ccc(Cl)cc3[C@H]2C1 (racemic) [Example 3, asenapine maleate] | about 3 % by weight | 3% | 5% | 8% | – | – |
| CN1C[C@@H]2c3ccccc3Oc3ccc(Cl)cc3[C@H]2C1 (racemic) [Example 4, asenapine maleate] | less than 1 % by weight | <1% | – | – | – | > 99 % by weight |
| CN1C[C@@H]2c3ccccc3Oc3ccc(Cl)cc3[C@H]2C1 (racemic) [Example 5, asenapine maleate] | less than 1 % by weight | <1% | – | – | – | > 99 % by weight |
| CN1C[C@@H]2c3ccccc3Oc3ccc(Cl)cc3[C@H]2C1 (racemic) [Example 6, asenapine maleate] | less than 1 % by weight | – | – | – | – | > 99 % by weight |

Other lines, results leading:

| orthorhombic form contained in the micronised product, as determined by PXRD [1] | % of orthorhombic form in the micronised product [1] | % of orthorhombic form after 1 months [2] | % of orthorhombic form after 3 months [2] | % of orthorhombic form after 2 months [2] | polymorphic purity (monoclinic form) of the micronised product [1] | SMILES |
| --- | --- | --- | --- | --- | --- | --- |
| – | <1% | 8% | 12% | 5% | – | CN1C[C@@H]2c3ccccc3Oc3ccc(Cl)cc3[C@H]2C1 (racemic) [Example 2.1, asenapine maleate] |
| – | <1% | 4% | 7% | 3% | – | CN1C[C@@H]2c3ccccc3Oc3ccc(Cl)cc3[C@H]2C1 (racemic) [Example 3.1, asenapine maleate] |
